Measurements: EP0080819A1, “11-0-Alkylerythromycin A derivatives” (TAISHO PHARMACEUTICAL CO. LTD, priority 1981, dated 1983)

Tested on: Staphylococcus aureus Smith No. 4
Assay: In vivo antibacterial activity (mouse protection test, number of surviving mice)
Details: oral, one hour after inoculation, male ddY mice, groups of 20, 10^7 cells per mouse, i.p., living mice for seven days after administration
Protocol: Male ddY mice weighing 20 - 23 g in groups 20 each were inoculated with Staphylococcus aureus Smith No. 4 (10^7 cells per mouse, i.p.). Erythromycin A was used as a control, the compound of formula I wherein R is methyl group("compound 1") was administered orally at one hour after inoculation, and the number of living mice for seven days after administration was calculated to determine the in vivo antibacterial activity.

| Compound | In vivo Antibacterial Activity [The Number of Surviving Mice] (dose 0.5 mg/mouse) | In vivo Antibacterial Activity [The Number of Surviving Mice] (dose 1 mg/mouse) | In vivo Antibacterial Activity [The Number of Surviving Mice] (dose 2 mg/mouse) | In vivo Antibacterial Activity [The Number of Surviving Mice] (dose 4 mg/mouse) |
| --- | --- | --- | --- | --- |
| CC[C@H]1OC(=O)[C@H](C)[C@@H](O[C@H]2C[C@@](C)(OC)[C@@H](O)[C@H](C)O2)[C@H](C)[C@@H](O[C@@H]2O[C@H](C)C[C@H](N(C)C)[C@H]2O)[C@](C)(O)C[C@@H](C)C(=O)[C@H](C)[C@@H](OC)[C@]1(C)O [Compound 1, 11-0-methylerythromycin A] | 6 | 12 | 20 | 20 |
| CC[C@H]1OC(=O)[C@H](C)[C@@H](O[C@H]2C[C@@](C)(OC)[C@@H](O)[C@H](C)O2)[C@H](C)[C@@H](O[C@@H]2O[C@H](C)C[C@H](N(C)C)[C@H]2O)[C@](C)(O)C[C@@H](C)C(=O)[C@H](C)[C@@H](O)[C@]1(C)O [Erythromycin A] | 4 | 8 | 18 | 20 |
